Source: US11059795B2, “Androgen receptor modulators and methods for their use” (ESSA Pharma, Inc., priority 2018, dated 2021)

Tests used:
androgen receptor (AR) = molecular target: T1, androgen receptor (AR) (Homo sapiens, UniProt P10275, T878A); assay: Androgen-induced PSA (6.1 kb)-luciferase reporter assay in LNCaP cells; type: cell-based; settings: LNCaP cells transfected with PSA (6.1 kb)-luciferase reporter, R1881 1 nM, 24 h; read-out: PSA-Luc IC50 Range
T1 construct: LNCaP cells were transiently transfected with the PSA (6.1 kb)-luciferase reporter for 24 h; endogenous in cells; host or cells: LNCaP
T1 sequence (P10275 1-920 T878A): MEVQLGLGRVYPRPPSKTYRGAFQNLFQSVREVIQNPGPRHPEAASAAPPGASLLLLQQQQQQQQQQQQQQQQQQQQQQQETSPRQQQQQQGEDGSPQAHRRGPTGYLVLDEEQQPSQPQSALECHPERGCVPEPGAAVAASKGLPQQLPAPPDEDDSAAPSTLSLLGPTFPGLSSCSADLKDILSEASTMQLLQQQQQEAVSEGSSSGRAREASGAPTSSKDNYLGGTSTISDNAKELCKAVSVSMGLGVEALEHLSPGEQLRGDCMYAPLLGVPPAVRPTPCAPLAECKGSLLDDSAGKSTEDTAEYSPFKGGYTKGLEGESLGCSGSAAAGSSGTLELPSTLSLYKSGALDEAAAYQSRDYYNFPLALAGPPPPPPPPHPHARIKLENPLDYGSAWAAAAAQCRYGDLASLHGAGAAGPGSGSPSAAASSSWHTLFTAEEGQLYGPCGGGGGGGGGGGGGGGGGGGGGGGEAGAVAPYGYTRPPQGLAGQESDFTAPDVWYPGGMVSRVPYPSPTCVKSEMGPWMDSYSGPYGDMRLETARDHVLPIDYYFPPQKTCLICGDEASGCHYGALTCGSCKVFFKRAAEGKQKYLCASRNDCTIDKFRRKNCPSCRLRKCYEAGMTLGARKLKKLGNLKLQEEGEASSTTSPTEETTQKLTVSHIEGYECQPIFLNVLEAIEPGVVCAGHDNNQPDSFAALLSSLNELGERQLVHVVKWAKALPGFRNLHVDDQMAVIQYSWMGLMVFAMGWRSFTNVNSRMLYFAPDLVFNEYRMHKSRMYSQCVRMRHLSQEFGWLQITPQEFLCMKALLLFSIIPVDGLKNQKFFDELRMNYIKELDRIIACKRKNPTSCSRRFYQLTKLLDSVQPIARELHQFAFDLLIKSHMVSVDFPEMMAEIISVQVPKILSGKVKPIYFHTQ
Procedure, shortened: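 LNCaP cells carrying a PSA (6.1 kb) promoter-luciferase reporter with AREs; androgen-induced firefly luciferase read from lysates for 10 s. RLU normalized to protein content; IC50 calculated from the normalized data.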

[1] = Microsomal stability assay, mouse liver microsomes; type: in vitro ADME; settings: 1 μM compound, 0.5 mg/mL protein, 37° C.; for microsomal CLint at 1 μM: mouse, liver microsomes, pH 7.4, mouse liver microsomes, read-out: MLM +30/− NADPH: Clint (μL/min/mg protein); for MLM +30/− NADPH: Clint (μL/min/mg protein): mouse liver microsomes
Procedure, shortened: (§1)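 Compound at 1 μM was incubated at 37° C with 0.5 mg/mL liver microsomes and 1 mM NADPH and/or 1 mM UDPGA (with alamethicin) in 100 mM potassium phosphate pH 7.4, 3 mM MgCl2. Samples were taken at 0, 15, 30 and 60 min and measured by LC/MS/MS. t½ came from compound loss relative to 0 min, and Clint was scaled with 45 mg microsomal protein/g liver.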

[2] = Hepatocyte stability assay, mouse hepatocytes; type: in vitro ADME; settings: 1 μM compound, 0.5 million cells/mL, 37° C.; for hepatocyte CLint at 1 μM: mouse, cryopreserved hepatocytes, read-out: MH +/− NADPH: Clint (μL/min/million cells)
From the text: The […] of in vitro intrinsic clearance (Clint) for drug candidates in the early discovery stage is common practice in the pharmaceutical industry. The Clint values of drug candidates can help to confirm whether metabolism is the main clearance pathway when it is compared with the total body clearance in vivo. Hepatocytes are among the routinely used in vitro systems for measuring clearance. Hepatocytes have been reported to retain most of the phase I and phase II metabolic activities, and therefore, it is a useful tool to estimate the intrinsic clearance for potential drug candidates.
Metabolic stability of testing compound were be evaluated using human and mouse hepatocytes and can also be use rat, mouse, or other animal hepatocytes to predict intrinsic clearance. Cryopreserved hepatocytes were removed from the liquid nitrogen tank and thawed in a 37° C. water bath. As soon as the cells pulled away from the vial wall, they were decanted into 48 ml of warm HT medium. Cells were centrifuged for four minutes at 420 rpm (50 g). After removing the supernatant, pellet was re-suspended in warm DMEM medium. Cell density was counted by a hemacytometer.
The assay was carried out in 96-well microtiter plates. Compounds were incubated for 0, 60, 120, and 180 minutes at 37° C. with hepatocytes. Reaction mixtures (50 μL) contained a final concentration of 1 μM test compound, 0.5 million cells/mL hepatocytes in the DMEM medium. At each of the time points (for example, 0, 1, 2, and 3 hours), 200 μL of quench solution (100% acetonitrile with 0.1% formic acid) with internal standard was transferred to each well. Midazolam was included as a positive control to verify assay performance. Plates were sealed and centrifuged at 4° C. for 15 minutes at 4000 rpm. The supernatant is transferred to fresh plates for LC/MS/MS analysis.
Summarized conditions (customizable): [Compound]=[…], Positive control: midazolam and/or naloxone, [Hepatocyte]=0.5 million cells/Ml, time=0, 60, 120, and 180 min, t=37° C.
All samples were analyzed on LC/MS/MS using an AB Sciex API 4000 instrument, coupled to a Shimadzu LC-20AD LC Pump system. Analytical samples were separated using a Waters Atlantis T3 dC18 reverse phase HPLC column (20 mm×2.1 mm) at a flow rate of 0.5 mL/min. The mobile phase consisted of 0.1% formic acid in water (solvent A) and 0.1% formic acid in 100% acetonitrile (solvent B).
The extent of metabolism was calculated as the disappearance of the test compound, compared to the 0-min control reaction incubations. Initial rates were calculated for the compound concentration and used to determine t½ values and subsequently, the intrinsic clearance, Clint. Clint=(0.693)(1/t½(min))(mL incubation/million cells)

[3] = Microsomal stability assay, human liver microsomes; type: in vitro ADME; settings: 0.5 mg/mL protein, 37° C.; for microsomal CLint at 1 μM: pH 7.4, 1 μM compound, read-out: HLM +/− NADPH: Clint (μL/min/mg protein)
Procedure, shortened: as §1

Row | SMILES | IC50 (androgen receptor (AR)) [µM] | microsomal CLint at 1 μM [1] [µL/min/mg] | hepatocyte CLint at 1 μM [2] [µL/min/1e6 cells] | microsomal CLint at 1 μM [3] [µL/min/mg] | MLM +30/− NADPH: Clint (μL/min/mg protein) [1] | MH +/− NADPH: Clint (μL/min/million cells) [2] | HLM +/− NADPH: Clint (μL/min/mg protein) ([3]; 1 μM compound)
1 | CC(=O)Nc1nccc(COc2ccc(C(C)(C)c3cc(C)c(OCCCl)c(C#N)c3)cc2)n1 [Compound A100] | < 0.5 | ≥ 48 | ≥ 18 | ≥ 48 |  |  | 
2 | CC(C)(c1ccc(OCc2nnccc2NS(C)(=O)=O)cc1)c1cc(Cl)c(OCCCl)c(C#N)c1 [Compound A101] | 0.5 to 2 | 12 to 48 | 4 to 18 | ≥ 48 |  |  | 
3 | CC(C)(c1ccc(OCc2ccnnc2NS(C)(=O)=O)cc1)c1cc(Cl)c(OCCCl)c(C#N)c1 [Compound A102] | < 0.5 | < 12 | < 4 | 12 to 48 |  |  | 
4 | CC(C)(c1ccc(OCc2nccnc2NS(C)(=O)=O)cc1)c1cc(Cl)c(OCCCl)c(C#N)c1 [Compound A103] | < 0.5 |  |  | 12 to 48 | ** (** represents Cl in the range of 12-48 μL/min/mg protein) | *** (*** represent Cl < 4 cells μL/min/million cells) | 
5 | CC(C)(c1ccc(OCc2nccnc2NS(C)(=O)=O)cc1)c1cc(Cl)c(OCCCl)c(C#N)c1 [Compound A104] | < 0.5 |  |  |  | * (* represents Cl in the range of ≥48 μL/min/mg protein) | * (* represents Cl in the range of ≥18 μL/min/million cells) | ** (** represents Cl in the range of 12-48 μL/min/mg protein)
6 | CC(N)(c1ccc(OCc2ocnc2S(C)(=O)=O)cc1)c1cc(Cl)c(OCCCl)c(C#N)c1 (stereo not drawn) [Compound A105] | > 2 | ≥ 48 | ≥ 18 | 12 to 48 |  |  | 
7 | C[C@](O)(c1ccc(OCc2ocnc2S(C)(=O)=O)cc1)c1cc(Cl)c(OCCCl)c(C#N)c1 [Compound A108] | 0.5 to 2 | ≥ 48 | ≥ 18 | < 12 |  |  | 
8 | CSc1ncc(COc2ccc(C(C)(C)c3cc(Cl)c(OCCCl)c(Cl)c3)cc2)o1 [Compound A111] | < 0.5 | 12 to 48 | 4 to 18 | 12 to 48 |  |  | 
9 | COc1ncc(COc2ccc(C(C)(C)c3cc(Cl)c(OCCCl)c(C#N)c3)cc2)o1 [Compound A112, 3-chloro-2-(2-chloroethoxy)-5-(2-(4-((2-methoxyoxazol-5-yl)methoxy)phenyl)propan-2-yl)benzonitrile] | < 0.5 | 12 to 48 | 4 to 18 | < 12 |  |  | 
10 | CC(C)(c1ccc(OCc2cnc(C#N)o2)cc1)c1cc(Cl)c(OCCCl)c(C#N)c1 [Compound A113] | > 2 | 12 to 48 | ≥ 18 | 12 to 48 |  |  | 
11 | CC(C)(c1ccc(OCc2cnc(C(N)=O)o2)cc1)c1cc(Cl)c(CCCCl)c(C#N)c1 [Compound A114] | 0.5 to 2 | 12 to 48 | ≥ 18 | < 12 |  |  | 
12 | CC(C)(c1ccc(OCc2cnc(Cl)o2)cc1)c1cc(Cl)c(OCCCl)c(C#N)c1 [Compound A115] | < 0.5 | < 12 | ≥ 18 | < 12 |  |  | 
13 | CC(Oc1ccc(C(C)(C)c2cc(Cl)c(OCCCl)c(Cl)c2)cc1)c1[nH]cnc1S(C)(=O)=O (stereo not drawn) [Compound A116] | 0.5 to 2 | 12 to 48 | 4 to 18 | 12 to 48 |  |  | 
14 | CC(C)(c1ccc(OCc2ocnc2S(C)(=O)=O)cc1)c1cc(Cl)c(OCC(O)CCl)c(Cl)c1 (stereo not drawn) [Compound A117] | 0.5 to 2 | 12 to 48 | ≥ 18 | 12 to 48 |  |  | 
15 | CSc1nc(COc2ccc(C(C)(C)c3cc(Cl)c(OCCCl)c(C#N)c3)cc2)c(C)o1 [Compound A118] | 0.5 to 2 | ≥ 48 | 4 to 18 | ≥ 48 |  |  | 
16 | CSc1nc(C)c(COc2ccc(C(C)(C)c3cc(Cl)c(OCCCl)c(C#N)c3)cc2)o1 [Compound A119] | < 0.5 | ≥ 48 | 4 to 18 | ≥ 48 |  |  | 
17 | CC(C)(c1ccc(CNc2ccnc(NS(C)(=O)=O)n2)cc1)c1cc(Cl)c(OCCCl)c(C#N)c1 [Compound A120] | > 2 | < 12 | 4 to 18 | ≥ 48 |  |  | 
18 | CC(C)(c1ccc(CCc2ccnc(N)n2)cc1)c1cc(Cl)c(OCCCl)c(C#N)c1 [Compound A121] | 0.5 to 2 | 12 to 48 | 4 to 18 | 12 to 48 |  |  | 
